The first assay has as its system HCC1187 cells. Put plainly: Proliferation assay (IncuCyte cell confluence), HCC1187. Format: cell-based. As to conditions: Homo sapiens, concentration for 50% of maximal inhibition of cell proliferation. The procedure: (§1) 1-3×10^3 cells were seeded in 96-well plates in duplicates and treated at the indicated compound concentrations. Cells were monitored using the IncuCyte® live cell imaging system (Essen BioScience™, Ann Arbor, Mich.) which was placed in a cell culture incubator operated at 37° C. and 5% CO2. Cell confluence was determined using calculations derived from phase-contrast images. The concentration for 50% of maximal inhibition of cell proliferation (GI50) values were determined by fitting to a standard four-parameter logistic using GraphPad Prism® v5. Graphs depicting the GI50s of select EZH2 degraders/disruptors described here for various cancer cell lines are shown in FIGS. 4-49.
Molecule `CCCc1cc(C)[nH]c(=O)c1CNC(=O)c1cc(-c2ccc(N3CCN(CCNC(=O)CCC45CC6CC(CC(C6)C4)C5)CC3)nc2)cc2c1cnn2C(C)C` [AM16-11A, 6-(6-(4-(2-(3-((1r,3s)-adamantan-1-yl)propanamido)ethyl)piperazin-1-yl)pyridin-3-yl)-1-isopropyl-N-((6-methyl-2-oxo-4-propyl-1,2-dihydro-pyridin-3-yl)methyl)-1H-indazole-4-carboxamide] registered a concentration for 50% growth inhibition (GI50) of 2.6 µM.

As for `CCCc1cc(C)[nH]c(=O)c1CNC(=O)c1cc(-c2ccc(N3CCN(C(=O)CC45CC6CC(CC(C6)C4)C5)CC3)nc2)cc2c1cnn2C(C)C` [AM16-37A, 6-(6-(4-(2-((1s,3s)-adamantan-1-yl)acetyl)piperazin-1-yl)pyridin-3-yl)-1-isopropyl-N-((6-methyl-2-oxo-4-propyl-1,2-dihydropyridin-3-yl)methyl)-1H-indazole-4-carboxamide], halving of growth (GI50) required 2.1 µM.

For the next assay, the system named is MDA-MB-468 cells. The assay is described as follows: Proliferation assay (IncuCyte cell confluence), MDA-MB-468. Format: cell-based. Particulars: Homo sapiens, concentration for 50% of maximal inhibition of cell proliferation. The procedure: as §1
`Cc1cc(C)c(CNC(=O)c2cc(-c3ccc(N4CCN(CCNC(=O)CCOCCNc5cccc6c5C(=O)N(C5CCC(=O)NC5=O)C6=O)CC4)nc3)cc3c2cnn3C(C)C)c(=O)[nH]1` (stereo not shown) [AM29-177A, N-((4,6-dimethyl-2-oxo-1,2-dihydropyridin-3-yl)methyl)-6-(6-(4-(2-(3-(2-((2-(2,6-dioxopiperidin-3-yl)-1,3-dioxoisoindolin-4-yl)amino)ethoxy)propanamido)ethyl)piperazin-1-yl)pyridin-3-yl)-1-isopropyl-1H-indazole-4-carboxamide] returned a GI50 of 2.5 µM.

The molecule `Cc1cc(C)c(CNC(=O)c2cc(-c3ccc(N4CCN(CCNCCC56CC7CC(CC(C7)C5)C6)CC4)nc3)cc3c2c(C)cn3C(C)C)c(=O)[nH]1` [AM41-41A, 6-(6-(4-(2-((2-((3r,5r,7r)-adamantan-1-yl)ethyl)amino)ethyl)piperazin-1-yl)pyridin-3-yl)-N-((4,6-dimethyl-2-oxo-1,2-dihydropyridin-3-yl)methyl)-1-isopropyl-3-methyl-1H-indole-4-carboxamide] yielded a GI50 of 2.3 µM.

`CCN(c1cc(-c2ccc(CN3CCN(CCN(CCC45CC6CC(CC(C6)C4)C5)CCC45CC6CC(CC(C6)C4)C5)CC3)cc2)cc(C(=O)NCc2c(C)cc(C)[nH]c2=O)c1C)C1CCOCC1` [CZ40-75, 4′-((4-(2-((2-((1s,3S)-adamantan-1-yl)ethyl)(2-((3R,5R,7R)-adamantan-1-yl)ethyl)amino)ethyl)piperazin-1-yl)methyl)-N-((4,6-dimethyl-2-oxo-1,2-dihydropyridin-3-yl)methyl)-5-(ethyl(tetra-hydro-2H-pyran-4-yl)amino)-4-methyl-[1,1′-biphenyl]-3-carboxamide] showed a GI50 of 1.1 µM.

`CCN(c1cc(-c2ccc(CN3CCN(CCNC(=O)CCSCCC[C@@H]4/C=C(\C)C[C@H](C)C[C@H](OC)[C@H]5O[C@@](O)(C(=O)C(=O)N6CCCC[C@H]6C(=O)O[C@H](/C(C)=C/[C@@H]6CC[C@@H](O)[C@H](OC)C6)[C@H](C)[C@@H](O)CC4=O)[C@H](C)C[C@@H]5OC)CC3)cc2)cc(C(=O)NCc2c(C)cc(C)[nH]c2=O)c1C)C1CCOCC1` [CZ40-131, FK506 adduct with N-((4,6-dimethyl-2-oxo-1,2-dihydropyridin-3-yl)methyl)-5-(ethyl(tetrahydro-2H-pyran-4-yl)amino)-4′-((4-(2-(3-mercaptopropanamido)ethyl)piperazin-1-yl)methyl)-4-methyl-[1,1′-biphenyl]-3-carboxamide] had a GI50 of 1.5 µM.

For `CCN(c1cc(-c2ccc(CN3CCN(CCNCCC45CC6CC(CC(C6)C4)C5)CC3)cc2)cc(C(=O)NCc2c(C)cc(C)[nH]c2=O)c1C)C1CCOCC1` [CZ40-149, 4′-((4-(2-((2-((1s,3s)-adamantan-1-yl)ethyl)amino)ethyl)piperazin-1-yl)methyl)-N-((4,6-dimethyl-2-oxo-1,2-dihydropyridin-3-yl)methyl)-5-(ethyl(tetra-hydro-2H-pyran-4-yl)amino)-4-methyl-[1,1′-biphenyl]-3-carboxamide], the GI50 came out at 1.8 µM.

For `Cc1cc(C)c(CNC(=O)c2c(C)n([C@@H](C)C3CCN(CCNC(=O)CC4C5CC6CC(C5)CC4C6)CC3)c3ccccc23)c(=O)[nH]1` (stereo partly drawn) [XF042-90, 1-((S)-1-(1-(2-(2-((1R,3S,5S,7S)-adamantan-2-yl)acetamido)ethyl)piperidin-4-yl)ethyl)-N-((4,6-dimethyl-2-oxo-1,2-dihydropyridin-3-yl)methyl)-2-methyl-1H-indole-3-carboxamide], growth was halved (GI50) at 7.2 µM.

On to `CO[C@H]1C[C@@H](C)C/C(C)=C/[C@@H](CCCSCCC(=O)NCCN2CCC([C@H](C)n3c(C)c(C(=O)NCc4c(C)cc(C)[nH]c4=O)c4ccccc43)CC2)C(=O)C[C@H](O)[C@@H](C)[C@@H](/C(C)=C/[C@@H]2CC[C@@H](O)[C@H](OC)C2)OC(=O)[C@@H]2CCCCN2C(=O)C(=O)[C@]2(O)O[C@H]1[C@@H](OC)C[C@H]2C` [XF042-92, FK506 adduct with (S)-N-((4,6-dimethyl-2-oxo-1,2-dihydropyridin-3-yl)methyl)-1-(1-(1-(2-(3-mercaptopropanamido)ethyl)piperidin-4-yl)ethyl)-2-methyl-1H-indole-3-carboxamide], for which the GI50 came out at 2.6 µM.

Turning to `Cc1cc(C)c(CNC(=O)c2c(C)n([C@@H](C)C3CCN(CCN(CCC45CC6CC(CC(C6)C4)C5)CCC45CC6CC(CC(C6)C4)C5)CC3)c3ccccc23)c(=O)[nH]1` [XF042-93, 1-((S)-1-(1-(2-(bis(2-((3S,5S,7S)-adamantan-1-yl)ethyl)amino)ethyl)piperidin-4-yl)ethyl)-N-((4,6-dimethyl-2-oxo-1,2-dihydropyridin-3-yl)methyl)-2-methyl-1H-indole-3-carboxamide], the GI50 turned out to be 2.2 µM.

On to `COc1cc(C)[nH]c(=O)c1CNC(=O)c1c(C)n([C@@H](C)C2CCN(CCN(CCC34CC5CC(CC(C5)C3)C4)CCC34CC5CC(CC(C5)C3)C4)CC2)c2ccccc12` [XF042-95, 1-((S)-1-(1-(2-(bis(2-((3S,5S,7S)-adamantan-1-yl)ethyl)amino)ethyl)piperidin-4-yl)ethyl)-N-((4-methoxy-6-methyl-2-oxo-1,2-dihydro-pyridin-3-yl)methyl)-2-methyl-1H-indole-3-carboxamide], for which the concentration for 50% growth inhibition (GI50) is 2.5 µM.

As to `Cc1cc(C)c(CNC(=O)c2c(C)n([C@@H](C)C3CCN(CCNCCC45CC6CC(CC(C6)C4)C5)CC3)c3ccccc23)c(=O)[nH]1` [XF042-133, 1-((S)-1-(1-(2-((2-((3S,5S,7S)-adamantan-1-yl)ethyl)amino)ethyl)piperidin-4-yl)ethyl)-N-((4,6-dimethyl-2-oxo-1,2-dihydropyridin-3-yl)methyl)-2-methyl-1H-indole-3-carboxamide], growth was halved (GI50) at 4.9 µM.

In turn, `CO[C@H]1C[C@@H](C)C/C(C)=C/[C@@H](CCCSCCC(=O)NCCN2CCN(c3ccc(-c4cc(C(=O)NCc5c(C)cc(C)[nH]c5=O)c5cnn(C(C)C)c5c4)cn3)CC2)C(=O)C[C@H](O)[C@@H](C)[C@@H](/C(C)=C/[C@@H]2CC[C@@H](O)[C@H](OC)C2)OC(=O)[C@@H]2CCCCN2C(=O)C(=O)[C@]2(O)O[C@H]1[C@@H](OC)C[C@H]2C` [XY028-086, FK506 adduct with N-((4,6-dimethyl-2-oxo-1,2-dihydropyridin-3-yl)methyl)-1-isopropyl-6-(6-(4-(2-(3-mercaptopro-panamido)ethyl)piperazin-1-yl)pyridin-3-yl)-1H-indazole-4-carboxamide] yielded a GI50 of 2.4 µM.

Source of the values: patent US11510920B2, “Compositions and methods for treating EZH2-mediated cancer” (Icahn School of Medicine at Mount Sinai, priority 2016, dated 2022).
